Data: BindingDB's records for doi:10.7270/Q29G5K5D (Cc_Pmlsc, 2007)

These molecules were tested against T1, Dual specificity protein phosphatase 1 (Homo sapiens, UniProt P28562) (assay: MKP-1 phosphatase inhibitors, SAR follow-up, biochemical, in vitro (AID 579)). Conditions: pH 7; 23 °C.
T1 sequence (P28562 whole entry): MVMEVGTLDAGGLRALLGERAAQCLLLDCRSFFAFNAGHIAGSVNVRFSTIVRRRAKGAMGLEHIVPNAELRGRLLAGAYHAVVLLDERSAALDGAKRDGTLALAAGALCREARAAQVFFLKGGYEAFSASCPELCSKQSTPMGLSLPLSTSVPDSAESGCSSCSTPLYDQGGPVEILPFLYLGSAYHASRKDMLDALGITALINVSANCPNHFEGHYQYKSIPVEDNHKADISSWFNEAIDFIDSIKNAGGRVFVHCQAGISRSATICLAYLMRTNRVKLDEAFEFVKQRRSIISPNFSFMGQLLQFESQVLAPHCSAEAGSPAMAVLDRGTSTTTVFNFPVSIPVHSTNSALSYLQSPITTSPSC
With CN(C)C=Nc1cc(=O)[nH]c(=O)n1Cc1ccccc1 [N'-[2,6-dioxo-3-(phenylmethyl)-4-pyrimidinyl]-N,N-dimethylmethanimidamide] the IC50 was greater than 50 µM.
Cn1c(N)c(C(=O)COC(=O)c2cc(C(F)(F)F)nc3ccccc23)c(=O)n(Cc2ccccc2)c1=O [2-(trifluoromethyl)-4-quinolinecarboxylic acid [2-[6-amino-1-methyl-2,4-dioxo-3-(phenylmethyl)-5-pyrimidinyl]-2-oxoethyl] ester] gave an IC50 greater than 50 µM.
In the case of Cn1c(=O)c(C(=O)COC(=O)c2cc(C(F)(F)F)nc3ccccc23)c(N)n(Cc2ccccc2)c1=O [2-(trifluoromethyl)-4-quinolinecarboxylic acid [2-[4-amino-1-methyl-2,6-dioxo-3-(phenylmethyl)-5-pyrimidinyl]-2-oxoethyl] ester], the IC50 is reported as greater than 50 µM.
